Experimental data published in article PMC7582544, “Bioactive Ent-Kaurane Diterpenes Oridonin and Irudonin Prevent Cancer Cells Migration by Interacting with the Actin Cytoskeleton Controller Ezrin” (International Journal of Molecular Sciences, 2020).
Read-outs that look alike come from different tables or passages of the source.

Tests used:
[1] = target: T1, Ezrin (Homo sapiens, UniProt P15311); assay: CETSA dose response at […] °C in A375 cells (EC50 […] in MKN28), Tm shift […] to […] °C; DARTS with MS and Western blot; assay type: cell-based
T1 construct: gene EZR
T1 sequence (P15311 whole entry): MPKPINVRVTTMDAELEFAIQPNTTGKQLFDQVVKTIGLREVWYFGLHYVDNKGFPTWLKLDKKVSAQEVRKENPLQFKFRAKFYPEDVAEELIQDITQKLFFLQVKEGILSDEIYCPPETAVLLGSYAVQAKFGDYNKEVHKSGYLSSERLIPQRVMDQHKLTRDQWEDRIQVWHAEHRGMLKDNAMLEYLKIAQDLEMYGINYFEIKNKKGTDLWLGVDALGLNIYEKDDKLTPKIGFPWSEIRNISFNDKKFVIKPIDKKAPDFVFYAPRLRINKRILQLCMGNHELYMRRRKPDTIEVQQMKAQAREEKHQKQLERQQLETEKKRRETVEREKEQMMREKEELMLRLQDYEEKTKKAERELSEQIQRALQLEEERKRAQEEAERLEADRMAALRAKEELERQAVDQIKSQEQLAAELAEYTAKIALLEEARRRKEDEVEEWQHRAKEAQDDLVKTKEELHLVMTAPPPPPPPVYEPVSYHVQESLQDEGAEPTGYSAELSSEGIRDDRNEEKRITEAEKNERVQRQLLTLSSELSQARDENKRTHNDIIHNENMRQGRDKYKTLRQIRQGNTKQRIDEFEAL

[2] = tested on: MKN28; assay: cells; set-up: species or system C2C12, A375; PrestoBlue cell proliferation/viability assay, absorbance 570 nm, 24 h; settings: Homo sapiens, MKN-28, 24 h
[3] = tested on: A375; assay: cells; set-up: species or system C2C12, MKN28; PrestoBlue cell proliferation/viability assay, absorbance 570 nm, 24 h; settings: Homo sapiens, A-375, 24 h
[4] = tested on: C2C12; assay: cells; set-up: species or system MKN28, A375; PrestoBlue cell proliferation/viability assay, absorbance 570 nm, 24 h; settings: Mus musculus, 24 h, non-cancer myoblasts
Procedure: Cell proliferation rate was evaluated measuring mitochondrial metabolic activity through the use of PrestoBlueTM (PB) (Cat. N. A13262, Invitrogen), employed according to the manufacturer’s protocol. Cells were plated onto 96-well plates (8000 cells/well), treated with increasing concentrations (10–60 μM) of Ori or Iru for 24 h and then incubated with PB reagent at 10% final concentration for 1 h. The absorbance was monitored at 570 nm with a reference wavelength set a 600 nm and using a microplate reader (Multiskan Go, Thermo Scientific, Waltham, MA, USA). Cell viability was expressed as a percentage relative to the un-treated cells cultured in DMEM with 0.1% DMSO and set to 100%. The dose compounds reducing cell number by 50% (IC50 values) were calculated using the respective dose–response curves according to the manufacturer’s protocol. IC50 values were used for the subsequent proteomic experiments. Instead, the non-toxic concentration of 10 μM was used for the functional assays. […] To that aim, we first evaluated the cytotoxic potential of both diterpenes on the C2C12 cells; therefore, we exposed for 24 h C2C12 myoblasts to increasing concentrations (10–60 μM) of Ori or of Iru, and, subsequently, we performed cell proliferation assay (Figure 1).

[5] = target: T1, Ezrin; assay: CETSA dose response at […] °C in MKN28 cells (EC50 […] in A375), Tm shift […] to […] °C; DARTS with MS and Western blot; assay type: cell-based

EC50 [1] [µM] | IC50 ([2]; read-out: Ori IC50) [µM] | IC50 ([3]; read-out: Ori IC50) [µM] | EC50 [5] [µM] | IC50 ([2]; read-out: Iru IC50) [µM] | IC50 ([3]; read-out: Iru IC50) [µM] | Compound | IC50 ([4]; read-out: Ori IC50) [µM] | IC50 ([4]; read-out: Iru IC50) [µM]
19 | 20 | 25 | – | – | – | C=C1C(=O)[C@]23[C@H](O)[C@H]1CC[C@H]2[C@@]12CO[C@]3(O)[C@@H](O)[C@@H]1C(C)(C)CC[C@@H]2O [Ori, (1S,2S,5S,8R,9S,10S,11R,15S,18R)-9,10,15,18-tetrahydroxy-12,12-dimethyl-6-methylidene-17-oxapentacyclo (7.6.2.15,8.01,11.02,8) octadecan-7-one] | 30 | –
– | – | – | 13 | 25 | 35 | C=C1C(=O)[C@@]23C(CC[C@@H]1[C@H]2O)[C@]12CCCC(C)(C)C1[C@H](O)[C@@]3(O)O[C@H]2O (some centres unmarked) [Iru] | – | 50
